From US20250249008A1, “PHARMACEUTICAL COMPOSITIONS OF ENSIFENTRINE FOR CHRONIC OBSTRUCTIVE PULMONARY DISEASE” (Verona Pharma PLC, priority 2024, published 2025)

Legend:
[1] = tested on: patients with moderate to severe COPD; assay: Clinical study in COPD: dyspnea by transition dyspnea index (TDI) in subjects using LABA + ICS; type: in vivo, human
Description: A clinical study was conducted to determine the efficacy of ensifentrine in treating COPD compared with placebo. Ensifentrine was administered by nebulizer at a dose of 3 mg twice daily (BID) for 24 weeks. The study was a multicenter, randomized, double-blind, parallel group, placebo-controlled trial with around 800 patients and 5:3 randomization.
The study population included patients aged 40-80 years with moderate to severe COPD (FEV1 30%-70% p.n., FEV1/forced vital capacity (FVC) ratio<0.7, with mMRC≥2). The randomization stratified (a) the use of stable background maintenance LAMA or LABA therapy use (approx. 50% yes or no) and (b) cigarette smoking (current or former). Inhaled corticosteroid (ICS) maintenance therapy was permitted in up to 20% of patients under certain provisions.
Ensifentrine was studied for its ability to treat COPD in subjects using inhalable corticosteroids (ICS) while also using a LABA.

[2] = tested on: patients with moderate to severe COPD; assay: Clinical study in COPD: moderate/severe COPD exacerbations (rate ratio, time to first exacerbation); type: in vivo, human
Description: A COPD exacerbation may be a moderate COPD exacerbation or a severe COPD exacerbation. A moderate exacerbation is defined as worsening symptoms of COPD (as defined hereinabove) requiring a minimum of three days of treatment with oral/systemic corticosteroids and/or antibiotics. A severe exacerbation is defined as worsening symptoms of COPD (as defined hereinabove) requiring in-patient hospitalization. In some embodiments, the pharmaceutical compositions provided herein reduce the severity of COPD exacerbations in a patient, and may be used in preventing severe COPD exacerbations in a subject. In some embodiments, pharmaceutical compositions reduce the severity of COPD exacerbations. In some embodiments, […]
Ensifentrine's ability to reduce the frequency and or severity of COPD exacerbations was studied in 1,549 subjects. Ensifentrine's ability to reduce the frequency and or severity of COPD exacerbations was assessed in various subgroup populations. In one part of the study, subjects were assessed based on whether they were diagnosed with mild or moderate COPD or severe or very severe COPD. […]
These subjects were also assessed for the time to first moderate/severe COPD exacerbation, as measured by a hazard ratio from a Cox model. […]

Structure (SMILES): COc1cc2c(cc1OC)-c1c/c(=N\c3c(C)cc(C)cc3C)n(CCNC(N)=O)c(=O)n1CC2 [Ensifentrine, N-(2-{(2E)-9,10-dimethoxy-4-oxo-2-[(2,4,6-trimethylphenyl)imino]-6,7-dihydro-2H-pyrimido[6,1-a]isoquinolin-3(4H)-yl}ethyl)urea]
- Transition Dyspnea Index, LS Mean ([1]; COPD medication LABA + ICS): 1.394 (0.4748)
- Transition Dyspnea Index, Estimate (Ensi-Pla) ([1]; COPD medication LABA + ICS, difference ensifentrine minus placebo): 0.768
- Dyspnea compared to placebo ([1]; subjects taking LABA and ICS): exhibited improvements in dyspnea
- Reductions in exacerbations ([2]; subjects with baseline blood eosinophil concentrations of greater than 150 cells/μL): Reductions in exacerbations were observed
- Reductions in exacerbations ([2]; subjects with baseline blood eosinophil concentrations of less than or equal to 150 cells/μL): Reductions in exacerbations were observed
